# From patent US11129831B2, “Identification of agents displaying functional activation of dopamine D2 and D4 receptors” (Florida A&M University, priority 2017, dated 2021)
# Assays:
# [1] = system: other four DA receptor subtypes; test: Binding to the other DA receptor subtypes; conditions: result in words
# [2] = system: righting reflex; test: Righting test (sedation); assay type: in vivo; conditions: rats, following CLP and bar tests
# [3] = target: T1, D2R (Homo sapiens, UniProt P14416); test: cell-based; assay type: cell-based; conditions: for recruitment of β-arrestin-2 to the D2R: result in words; for Emax: normalized to vehicle (0%) and quinpirole (100%), read-out: β-Arrestin Emax
# T1 sequence (P14416 whole entry): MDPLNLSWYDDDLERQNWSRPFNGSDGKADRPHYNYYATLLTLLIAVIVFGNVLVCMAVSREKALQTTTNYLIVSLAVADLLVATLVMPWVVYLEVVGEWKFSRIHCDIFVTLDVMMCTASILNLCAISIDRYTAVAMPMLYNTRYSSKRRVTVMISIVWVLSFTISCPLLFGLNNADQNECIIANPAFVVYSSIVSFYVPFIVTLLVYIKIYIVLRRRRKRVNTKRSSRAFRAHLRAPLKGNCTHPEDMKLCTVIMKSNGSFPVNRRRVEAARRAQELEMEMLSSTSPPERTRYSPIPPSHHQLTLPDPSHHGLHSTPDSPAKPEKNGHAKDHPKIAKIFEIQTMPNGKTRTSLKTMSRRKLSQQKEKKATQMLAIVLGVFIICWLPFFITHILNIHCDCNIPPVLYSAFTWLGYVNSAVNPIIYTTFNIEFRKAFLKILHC
# [4] = system: apomorphine (APO)-induced climbing behavior; conditions: for mice exhibiting inhibition of climbing: at higher dosages of each agent
# [5] = system: catalepsy; test: Catalepsy bar test
# [6] = Pharmacokinetics, plasma and brain levels by HPLC-PDA; conditions: for half-life: t1/2, elimination
# [7] = target: T1, D2R; assay type: binding
structure (smiles),measurement,setting,value
"Br.Br.Br.c1cnc(N2CCN(CCCc3nc4ccccc4s3)CC2)nc1 [Compound 28, 2-(3-(4-(Pyrimidin-2-yl)piperazin-1-yl)propyl)benzo[d]thiazole trihydrobromide]",binding affinity to the other four DA receptor subtypes,[1],little or no binding affinity
Fc1ccc(CCCCN2CCN(c3ccccn3)CC2)cc1 [SYA16263],righting after catalepsy testing,[2],all rats were observed to right themselves
same,recruitment of β-arrestin-2 to the D2R,[3],promotes D2-mediated β-arrestin-2 translocation
same,mice exhibiting inhibition of climbing,[4],~100%
same,mean time on bar,"[5]; rats, up to 239 μmole/kg (75 mg/kg), 19×ED50apom, no catalepsy",< 20 s
same,AUC0-t,"[6]; brain, rats, ip 50 mg/kg",86 μg · h/(mL or g)
same,tmax,"[6]; brain, rats, ip 50 mg/kg",10 min
same,AUC0-t,"[6]; plasma, rats, ip 50 mg/kg",5.4 μg · h/(mL or g)
same,Cplasma,"[6]; plasma, rats, ip 50 mg/kg, used for BB",5.23
same,Cmax,"[6]; rat, in vivo, ip, 50 mg/kg",63500 ng/g
same,tmax,"[6]; rat, in vivo, ip, 50 mg/kg",10.2 min
same,Kp at 10 min,"[6]; rat, in vivo, ip, 50 mg/kg, BB=Cbrain/Cplasma, rats, ip 50 mg/kg, at ~equilibrium point",12.1
same,half-life,"[6]; rat, in vivo, ip, 50 mg/kg, brain, rats, ip 50 mg/kg",174 to 186 min
same,half-life,"[6]; rat, in vivo, ip, 50 mg/kg, plasma, rats, ip 50 mg/kg",44.4 to 58.8 min
same,Log BB,"[6]; rats, ip 50 mg/kg",1.08
same,brain concentration at 24-hour point,"[6]; rats, ip 50.0 mg/kg, 24 h",near or below the detection limit
same,plasma concentration at 24-hour point,"[6]; rats, ip 50.0 mg/kg, 24 h",below the detection limit
Fc1ccc(OCCCN2CCN(c3ccccn3)CC2)cc1 [SYA16264],righting after catalepsy testing,[2],All rats righted themselves
same,Emax,[3],75.7%
same,mean time on bar,"[5]; male, Sprague-Dawley, rat, in vivo, 60 min",< 20 s
Fc1ccc(CCCCN2CCN(c3ccc(Cl)cc3)CC2)cc1 [SYA16267],Ki,[7],0.284 ± 0.021 µM
same,Emax,[3],5.1%
same,recruitment of β-arrestin-2 to the D2R,[3],significant loss of the ability
same,EC50,[3]; β-arrestin-2 recruitment to D2R,0.248 µM
Fc1ccc(CCCCN2CCN(c3ncccn3)CC2)cc1 [SYA16268],Emax,[3],71.9%
O=C(CCCN1CCC(O)(c2ccc(Cl)cc2)CC1)c1ccc(F)cc1 [haloperidol],mice exhibiting inhibition of climbing,[4],~100%
same,antipsychotic activity in animal models of schizophrenia (FIG. 10A),[4]; result in words,dose-dependent antipsychotic activity
same,catalepsy at 6×ED50 (FIG. 10B),"[5]; 6×ED50 values, result in words",significant catalepsy
